Data from patent publication US20230295729A1, “METHODS FOR DETECTING AND TREATING PROGESTERONE-RESISTANT INFERTILITY” (The Feinstein Institutes for Medical Research, priority 2022, published 2023).
Entries after “also recorded” stand apart in the source; their conditions may differ.

Columns and labels:
[1] = system: menstrual effluent-derived eSCs (ME-eSCs); experiment: MPA-stimulated gene expression in ME-eSCs of endometriosis cases and controls (qPCR, scRNA-seq); type: cell-based, human
Experimental: Methods: Low passage (p2-3) menstrual effluent-derived eSCs (ME-eSCs) obtained from women with confirmed endometriosis or healthy controls were stimulated with vehicle or MPA, a stable P4 analogue. qPCR and single cell RNA-seq (scRNA-seq, n=4 controls and 4 cases) were used to measure P4-induced gene expression and identify dysregulated pathways. Subcellular localization of PR isoforms and the PR chaperone protein, FKBP52, was assessed using immunofluorescent microscopy and western blotting of total, nuclear, and cytoplasmic preparations of ME-eSCs±MPA stimulation.

[2] = system: endometrial stromal cells (eSCs); experiment: Decidualization of menstrual effluent-derived eSCs induced by cAMP ± MPA, IGFBP1 and PRL by ELISA; type: cell-based, human; details: for cAMP-induced decidualization (IGFBP1 and PRL production): quercetin 25 μM 4 hr before cAMP 0.5 mM for 48 hr, vs vehicle; for cAMP+MPA-induced decidualization (IGFBP1 and PRL production): control- and case-eSCs, quercetin 25 μM 4 hr before cAMP 0.5 mM + 0.1 μM MPA for 48 hr; for potentiation of decidualization: comparators tested in the same eSC system as quercetin
Experimental: Methods: eSCs were isolated from menstrual effluent (ME) obtained from healthy controls and surgically diagnosed endometriosis cases. To induce decidualization, passage 2-3 eSCs DMEM 2% MSC-FBS were treated with dibutryl-cAMP (cAMP, 0.5 mM)±10^-7 M medroxyprogesterone acetate (MPA) for 48 hr. eSCs were pre-treated with vehicle or quercetin (25 μM) 4 hr prior to decidualization. PRL and IGFBP1 protein and mRNA in the culture supernatants and cells, respectively, were assessed by ELISA and RT-qPCR, respectively. Endometrial stromal cells (eSCs) were isolated and grown in DMEM 10% MSC-FBS, PSQ, normocin. Passage 2-3 eSCs were split into 96 well plates or 6-well plates in DMEM 10% MSC-FBS. After overnight culture in DMEM 2% MSC-FBS, decidualization of eSCs was induced after exposure to vehicle or 25 μM quercetin for 4 hrs, followed by 0.5 mM cAMP±0.1 μM MPA for 48 hrs. Decidualization was assessed by measuring IGFBP1 and/or PRL levels in the culture supernatants by ELISA. Progesterone sensitivity was also assessed by measuring progesterone-induced genes. Two sample t tests (unpaired or paired) were used to determine significance. Assessment of progesterone sensitive genes eSCs were treated vehicle or 25 μM quercetin for 4h followed by veh or 0.5 mM cAMP+0.1 uM MPA for 6h; RNA was isolated; and qPCR was performed for the P4 sensitives gene: HAND2, or other P4 target genes.
Roughly 30-50% of endometriosis patient experience infertility. The cause of endometriosis and its link to infertility is not completely understood. It has been shown that endometrial stromal cells (eSCs) from patients with endometriosis show decreased decidualization, a progesterone-driven process critical for implantation. Quercetin is a flavonoid with anti-inflammatory and immunomodulatory activities. […] In addition, quercetin improves infertility in patients with polycystic ovary syndrome (PCOS). We assessed the effect of quercetin on decidualization and progesterone sensitivity using eSCs. Methods: eSCs were isolated from menstrual effluent (ME) obtained from healthy controls and surgically diagnosed endometriosis cases. To induce decidualization, passage 2-3 eSCs were treated with dibutryl-cAMP (cAMP, 0.25-0.5 mM)±10^-7M medroxyprogesterone acetate (MPA) for 48 hr. eSCs were pre-treated with vehicle or quercetin (25 μM) 4 hr prior to decidualization. PRL and IGFBP1 protein and mRNA in the culture supernatants and cells, respectively, were assessed by ELISA and RT-qPCR, respectively. Progesterone sensitivity was also assessed by measuring progesterone-induced genes, PLZF and IHH. Two sample t tests (unpaired or paired) were used to determine significance.

[3] = system: endometrial stromal cells; experiment: SASP protein expression in endometrial stromal cells by western blotting; type: cell-based, human; details: quercetin 25 μM vs vehicle, DMEM 2% FBS, 2 days, confluent cells; normalised to GAPDH
Experimental: FIGS. 4A-4B: Quercetin-treatment of endometrial stromal cells reduces the senescence-associated secretory phenotype (SASP) and the expression SASP proteins. (4A) Treatment of confluent endometrial stromal cells with vehicle (Veh) vs. quercetin (25 μM, Q+) in DMEM 2% FBS for 2 days alters the expression of SASP proteins (or SASPs, IL-1β, TNF-membrane form [TNF-MF], TNF-soluble form [TNF-SF], MMP3, and Lamin B1 [LamB1*] vs. GAPDH [housekeeping protein for normalization]) by endometrial stromal cells, as determined by western blotting. Relative molecular weight markers (MWM) are shown on the left. (4B) Quantification of Veh-treated vs. Q-treated protein bands are shown in 4B. *Note: All proteins are positive SASPs (increased protein expression positively correlates with senescence), except LAMB1, which is lost with the senescence phenotype. Quercetin reduces senescence-associated secretory phenotype or SASP.

[4] = system: P4 target genes (HAND2, PLZF, IHH) in endometrial stromal cells; experiment: Progesterone (P4) target gene expression in eSCs by qPCR after quercetin pre-treatment; type: cell-based, human; details: control- and case-eSCs, p<0.05; for HAND2 mRNA expression (P4 target gene): quercetin 25 μM 4 h, then vehicle or 0.5 mM cAMP + 0.1 μM MPA 6 h, qPCR
Experimental: Endometrial stromal cells (eSCs) were isolated and grown in DMEM 10% MSC-FBS, PSQ, normocin. Passage 2-3 eSCs were split into 96 well plates or 6-well plates in DMEM 10% MSC-FBS. After overnight culture in DMEM 2% MSC-FBS, decidualization of eSCs was induced after exposure to vehicle or 25 μM quercetin for 4 hrs, followed by 0.5 mM cAMP±0.1 μM MPA for 48 hrs. […] Progesterone sensitivity was also assessed by measuring progesterone-induced genes. Two sample t tests (unpaired or paired) were used to determine significance. Assessment of progesterone sensitive genes eSCs were treated vehicle or 25 μM quercetin for 4h followed by veh or 0.5 mM cAMP+0.1 uM MPA for 6h; RNA was isolated; and qPCR was performed for the P4 sensitives gene: HAND2, or other P4 target genes. […] Progesterone sensitivity was also assessed by measuring progesterone-induced genes, PLZF and IHH.

[5] = system: patients with polycystic ovary syndrome (PCOS); details: cited from earlier work
endometrial implants = details: rat model of endometriosis; cited from earlier work
[6] = ME-eSCs from cases vs. controls, qPCR
[7] = scRNA-seq, n=4 controls and 4 cases

In the case of CC(=O)O[C@]1(C(C)=O)CC[C@H]2[C@@H]3C[C@H](C)C4=CC(=O)CC[C@]4(C)[C@H]3CC[C@@]21C [MPA, medroxyprogesterone acetate], the “MPA-stimulated IHH gene expression” value [1, 6] is reported as “significantly blunted”, the “MPA-stimulated PLZF gene expression” value [1, 6] is reported as “significantly blunted” and the “MPA-induced expression of CEBPD, DKK1, FABP4, MGP, and NNMT” value [1, 7] is reported as “significantly unregulated in controls only”. The “MPA-induced expression of IGFBP5, MALAT1, DIO2, and KRT17” value [1, 7] was “significantly downregulated in controls only” and the “potentiation of cAMP-induced decidualization by addition of MPA” value ([2]; control-eSCs, 0.1 μM MPA with cAMP, 48 hr) was “potentiates”.
For O=c1c(O)c(-c2ccc(O)c(O)c2)oc2cc(O)cc(O)c12 [Quercetin, quercetin], the “senescence-associated secretory phenotype (SASP) and expression of SASP proteins (IL-1β, TNF-MF, TNF-SF, MMP3, Lamin B1)” value [3] was “reduces”, the “HAND2 mRNA expression (P4 target gene)” value [4] was “increases” and the “HAND2 mRNA expression (P4 target gene)” value ([4]; listed as quercetin) was “significantly increased over vehicle”. The “MPA-induced IHH mRNA expression” value ([4]; quercetin 25 μM vs vehicle) was “significantly increased over vehicle”, the “MPA-induced PLZF mRNA expression” value ([4]; quercetin 25 μM vs vehicle) was “significantly increased over vehicle” and the “infertility in PCOS patients” value [5] was “improves”. The “cAMP-induced decidualization (IGFBP1 and PRL production)” value ([2]; case-eSCs (endometriosis), p<0.05) was “significantly enhanced; also recorded: increased”, the “cAMP+MPA-induced decidualization (IGFBP1 and PRL production)” value ([2]; p<0.05) was “increased” and the “cAMP+MPA-induced decidualization (IGFBP1 and PRL production)” value ([2]; p<0.05, listed as quercetin) was “significantly enhanced; also recorded: further enhances”. The “cAMP-induced decidualization (IGFBP1 and PRL production)” value ([2]; control-eSCs, p<0.02) was “significantly enhanced; also recorded: increased”, the anti-inflammatory effects (endometrial implants) was “exerted anti-inflammatory effects” and the “growth of endometrial implants” value (endometrial implants) was “inhibited”.
In the case of O=C(O)c1ccccc1O [SA, salicylic acid, reference compound], the potentiation of decidualization [2] is reported as “did not potentiate decidualization”.
For CC(C)Cc1ccc(C(C)C(=O)O)cc1 (stereo not shown) [ibuprofen, reference compound], the potentiation of decidualization [2] was “did not potentiate decidualization”.
